# Source: US20090061515A1, “Methods of inhibiting or suppressing cellular proliferation” (priority 2007, published 2009)
# Assays:
# Type in all cases: cell-based
# [1] = tested on: Normal Human Dermal Fibroblast (NHDF) cells; assay: Cell count and visual morphology of NHDF after exposure and after re-plating (Example 3); conditions: for cell count: NHDF seeded at 45,000 cells/well, 48 hours of exposure; for growth after re-plating without compound: then 96 hours in fresh media without compound
# Protocol: (§1) The 5,6-dihydroxy-hexan-2-one (1.2 grams) was dissolved in 12 ml of phosphate buffered saline and was filter sterilized through a 0.22 micrometer syringe filter prior to use. The 5,6-dihydroxy-hexan-2-one was further diluted to 10^−1, 10^−2, 10^−3, 10^−4, 10^−5, and 10^−6 using serial dilutions for the evaluation.
# (§2) NHDF were seeded at 45,000 cells/well in 24 well plate(s). Cells were grown for 72 hours, 48 hours of which was done in the presence of the test chemicals. 24 hours after seeding, 5,6-dihydroxy-hexan-2-one was added to the cell culture plates (2 ml/well). Assay plates were pulled for analysis at 24 and 48 hours after addition of the chemical compound. Samples were analyzed on the above-described assay as provided in the instructions for use of the assay.
# Cell counts were taken after the cells had been plated for 72 hours and exposed to 5,6-dihydroxy-hexan-2-one for 48 hours.
# After 48 hours of exposure to 5,6-dihydroxy-hexan-2-one, a cell count was taken on the 10^−1 concentration group and the 10^−6 concentration group. The 10^−1 cell count was 45,000 cells/well and the 10^−6 cell count was 275,000 cells/well. The count for the 10^−1 concentration group yielded the same number of cells that were previously seeded, while the 10^−6 concentration group had continued to grow rapidly without problems. Cells from these two different groups were then plated out at the same density as before, but without exposure to 5,6-dihydroxy-hexan-2-one and in fresh media for 96 hours. Visual representations of these two groups can be seen in FIG. 5 (10^−1, exposed to 5,6-dihydroxy-hexan-2-one for 48 hours, continued the culture for an additional 96 hours without 5,6-dihydroxy-hexan-2-one) and FIG. 6 (10^−6, exposed to 5,6-dihydroxy-hexan-2-one for 48 hours, continued the culture for an additional 96 hours without 5,6-dihydroxy-hexan-2-one).
# [2] = tested on: Normal Human Dermal Fibroblast (NHDF) cells; assay: Cell proliferation and viability assays (CyQuant, CellTiter-Glo, CellTiter 96), NHDF (Example 5); conditions: 48 hours
# From the text: Multiple assays were used to test a variety of cellular properties expressed after exposure of different cells types to 5,6-dihydroxy-hexan-2-one. A cell proliferation assay available under the trade designation CyQuant from Invitrogen Corporation (Carlsbad, Calif.) determines the density of cells in culture by using a green fluorescent dye which fluoresces when bound to cellular nucleic acids. The amount of nucleic acid present is proportional to the amount of living cells in culture. […]
# The amount of ATP present is proportional to the measured amount of a luminescent signal and therefore the amount of viable cells. […] The absorbance read is proportional to the amount of metabolic activity present in the cells.
# Normal human dermal fibroblast (NHDF) cells and coronary artery smooth muscle cells (CASMC) in culture were exposed to 5,6-dihydroxy-hexan-2-one at concentrations of 10 microgram/ml, 1 mg/ml, and 10 mg/ml, for 48 hours, after which the cell culture wells were analyzed for cell proliferation and viability. […] FIG. 17 is a graphical representation of fibroblast cell numbers measured after 48 hours exposure to different concentrations of 5,6-dihydroxy-hexan-2-one. FIG. 18 is a graphical representation of smooth muscle cell numbers measured after 48 hours exposure to different concentrations of 5,6-dihydroxy-hexan-2-one. […]
# [3] = tested on: human umbilical vein endothelial cells (HUVEC); assay: Cell migration after 48 hours exposure, HUVEC (Example 6); conditions: 10 mg/ml and 1 mg/ml
# Protocol: (§3) Evaluation of the effects of 5,6-dihydroxy-hexan-2-one on human umbilical vein endothelial cells (HUVEC) and Glioblastoma/Astrocytoma cells U87 cellular proliferation and migration during 120 hours following 48 hour exposure to 5,6-dihydroxy-hexan-2-one at concentration of 10 mg/ml, 1 mg/ml, 100 micrograms/ml. Controls were cells not exposed to the agent.
# (§4) In order to further explore the effects of this compound, experiments to evaluate the dose-effect response on the antiproliferative effect and on cell migration were conducted on two cell lines, human umbilical vein endothelial cells (HUVEC) and Glioblastoma/Astrocytoma cells (U87), over 120 hours after 48 hours of exposure to the compound.
# FIGS. 23(a)-(l) are pictures that visually display the migration over time of human umbilical vein endothelial cells (HUVEC) after 48 hours exposure to various concentrations of 5,6-dihydroxy-hexan-2-one. Specifically, FIGS. 23(a)-(d) represent the control, FIGS. 23(e)-(h) represent 10 mg/ml, and FIGS. 23(i)-(l) represent 1 mg/ml 5,6-dihydroxy-hexan-2-one. FIGS. 23(a), (e), and (i) represent migration after 2 hours; FIGS. 23(b), (f), and (j) represent migration after 14 hours; FIGS. 23(c), (g), and (k) represent migration after 20 hours; and FIGS. […], (h), and (l) represent migration after 48 hours.
# [4] = tested on: human Glioblastoma/Astrocytoma U87 cells; assay: CyQuant cell proliferation after 48 hour exposure, U87 (Example 6); conditions: for cell proliferation: 48 hour exposure
# Protocol: as §3, §4
# A cell proliferation assay available under the trade designation CyQuant from Invitrogen Corporation (Carlsbad, Calif.) determines the density of cells in culture by using a green fluorescent dye which fluoresces when bound to cellular nucleic acids.
# [5] = tested on: Normal Human Dermal Fibroblast (NHDF) cells; assay: CytoTox 96 LDH release cytotoxicity assay (Example 3)
# Protocol: The assay used was a non-radioactive cytotoxicity assay available under the trade designation CytoTox 96 from Promega Corporation (Madison, Wis.), which was designed to determine the cytotoxicity of a substance by quantitatively measuring the presence of lactate dehydrogenase (LDH) in cell culture supernatant. The enzymatic assay utilizes the LDH released in the supernatant in the conversion of a tetrazolium salt substrate into a red formazan product. This resulting product is measured using a standard 96 well plate reader where the absorbance recorded at 490 nanometers is directly proportional to the number of lysed cells. The Normal Human Dermal Fibroblasts were available from Clonetics Corporation (San Diego, Calif.).
# as §1
# as §2, with “Assay plates were pulled for analysis at 24 and 48 hours after addition of the chemical compound.” left out
compound,measurement,setting,value
"CC(=O)CCC(O)CO (centres unmarked) [5,6-dihydroxy-hexan-2-one]",cell count,[1]; 10^-1 concentration,"45,000 cells/well"
same,cell count,[1]; 10^-6 concentration,"275,000 cells/well"
same,growth after re-plating without compound,"[1]; NHDF, 10^-1, exposed 48 hours",impaired ability for cell proliferation
same,visual morphological study,"[1]; NHDF, 10^-1 concentration, 24 and 48 hours",signs of cell distress
same,visual physical cellular response,"[1]; NHDF, 10^-1 concentration, 48 hours",Fewer human dermal fibroblasts cells were observed
same,growth after re-plating without compound,"[1]; NHDF, 10^-6, exposed 48 hours",continued to grow without problems
same,cell proliferation,[2]; 10 mg/ml,inhibition of cell proliferation
same,cell proliferation,"[2]; other concentrations (10 microgram/ml, 1 mg/ml)",did not show this effect
same,cell migration,[3],did not shown differences
same,cell proliferation,"[4]; U87, 10 mg/ml",antiproliferative effects
same,time after withdrawal at which inhibitory effect was still observed,"[4]; U87, 10 mg/ml, after 48 hour exposure",≥ 120 h
same,cell proliferation,"[4]; U87, lowest concentration evaluated (100 micrograms/ml)",no antiproliferative effects
same,"cytotoxicity (LDH release), in words",[5]; 10^-1 concentration,no significant cytotoxicity
same,"cytotoxicity (LDH release), in words","[5]; various concentrations, 48 hours",no increase in cytotoxicity
